{"source": "paper doi:10.1101/2024.05.06.592687v1", "about": "(bioRxiv, 2024)", "key": {"[1]": {"assay": "Reversibility of polymerized structures by dilution", "assay_type": "physicochemical", "settings": "polymerized at 2x Cr, diluted 8-fold to 0.25 Cr"}, "[2]": {"assay_type": "physicochemical", "settings": "800 μM"}, "[3]": {"assay": "Critical assembly concentration", "assay_type": "physicochemical", "settings": "sedimentable versus total peptide concentration"}, "[4]": {"assay": "Negative staining transmission electron microscopy of peptide structures", "assay_type": "physicochemical", "settings": "for Diameter, Tight / Diameter, Wide / Pitch length / Structures comments / Width / Diameter: negative staining TEM; for Structure (TEM): negative staining, 1% uranyl acetate"}, "[5]": {"assay": "Hexapeptide aggregative properties", "assay_type": "physicochemical", "settings": "for Aggregation properties, in words: 800 μM (16p: 288 μM)"}, "[6]": {"assay": "Hexapeptide amyloidogenicity", "assay_type": "physicochemical", "settings": "800 μM (16p: 288 μM)"}, "[7]": {"assay": "Solubility of hexapeptides in water", "assay_type": "physicochemical", "settings": "deionized water"}, "[8]": {"assay": "Cryo-EM of peptide sample", "assay_type": "physicochemical", "settings": "data not shown"}}, "note": "“Also recorded” adds a separate entry of the source."}
{"substance": "QKVVYI [18p]", "values": [{"measurement": "Reversion of structures after dilution, in words", "setting": "[1]", "value": "almost total reversion"}, {"measurement": "Classification of the peptide (aggregative / amyloid / soluble), in words", "setting": "[2]", "value": "amyloid"}, {"measurement": "Slope of the Cr linear regression", "setting": "[3]", "value": 0.84}, {"measurement": "Diameter, Tight", "setting": "[4]", "value": 9, "unit": "nm"}, {"measurement": "Diameter, Wide", "setting": "[4]", "value": 18, "unit": "nm"}, {"measurement": "Pitch length", "setting": "[4]", "value": "107 ± 14", "unit": "nm"}, {"measurement": "Structures comments", "setting": "[4]", "value": "Heterogeneous"}, {"measurement": "Width", "setting": "[4]", "value": "29 ± 7", "unit": "nm"}, {"measurement": "Structure (TEM)", "setting": "[4]", "value": "fibrillar structures"}, {"measurement": "Structure (TEM)", "setting": "[4]; listed as 18p*", "value": "Twisted ribbons/fibers"}]}
{"substance": "VQVKYI [21p]", "values": [{"measurement": "Reversion of structures after dilution, in words", "setting": "[1]", "value": "almost total reversion"}, {"measurement": "Classification of the peptide (aggregative / amyloid / soluble), in words", "setting": "[2]", "value": "amyloid; also recorded: amyloidogenic character"}, {"measurement": "Diameter", "setting": "[4]", "value": "25 ± 6", "unit": "nm"}, {"measurement": "Structures comments", "setting": "[4]", "value": "Variable size / aggregates"}, {"measurement": "Structure (TEM)", "setting": "[4]", "value": "globular/ovoid structures"}, {"measurement": "Structure (TEM)", "setting": "[4]; listed as 21p*", "value": "Globular/ovoid"}]}
{"substance": "KYIQVV [2p]", "values": [{"measurement": "Classification of the peptide (aggregative / amyloid / soluble), in words", "setting": "[2]", "value": "aggregative; also recorded: strong aggregation potential"}, {"measurement": "Diameter", "setting": "[4]", "value": "10 ± 2", "unit": "nm"}, {"measurement": "Structure (TEM)", "setting": "[4]", "value": "structures resembling ribbons; also recorded: Ribbons/ Filaments"}]}
{"substance": "KYVIQV [15p]", "values": [{"measurement": "Reversion of structures after dilution, in words", "setting": "[1]", "value": "only partial"}, {"measurement": "Classification of the peptide (aggregative / amyloid / soluble), in words", "setting": "[2]", "value": "aggregative; also recorded: strong aggregation potential"}, {"measurement": "Slope of the Cr linear regression", "setting": "[3]", "value": 1.1}, {"measurement": "Pitch length", "setting": "[4]", "value": "196 ± 34", "unit": "nm"}, {"measurement": "Structures comments", "setting": "[4]", "value": "Rather homogeneous"}, {"measurement": "Width", "setting": "[4]", "value": "21 ± 2", "unit": "nm"}, {"measurement": "Structure (TEM)", "setting": "[4]", "value": "structures resembling ribbons; also recorded: Twisted ribbons"}]}
{"substance": "QVIKYV [23p]", "values": [{"measurement": "Classification of the peptide (aggregative / amyloid / soluble), in words", "setting": "[2]", "value": "entirely soluble; also recorded: non-aggregative"}, {"measurement": "Aggregation properties, in words", "setting": "[5]", "value": "very weak"}]}
{"substance": "KQIVYV [20p]", "values": [{"measurement": "Classification of the peptide (aggregative / amyloid / soluble), in words", "setting": "[2]", "value": "aggregative"}, {"measurement": "Diameter", "setting": "[4]", "value": "13 ± 2", "unit": "nm"}, {"measurement": "Structures comments", "setting": "[4]", "value": "Homogeneous / bundles"}, {"measurement": "Structure (TEM)", "setting": "[4]", "value": "fibrillar structures; also recorded: Filament/strand bundles"}]}
{"substance": "KVQYVI [14p]", "values": [{"measurement": "Classification of the peptide (aggregative / amyloid / soluble), in words", "setting": "[2]", "value": "entirely soluble"}, {"measurement": "Aggregation properties, in words", "setting": "[5]", "value": "no"}]}
{"substance": "YQVKIV [16p]", "values": [{"measurement": "Amyloidogenicity by Thioflavin T fluorescence, in words", "setting": "[6]", "value": "not amyloidogenic"}, {"measurement": "Classification of the peptide (aggregative / amyloid / soluble), in words", "setting": "[2]", "value": "strong aggregation potential"}, {"measurement": "Solubility in water, in words", "setting": "[7]", "value": "poor solubility in water"}, {"measurement": "Solubility in water, in words", "setting": "[7]; listed as 16p*", "value": "low solubility in water"}, {"measurement": "Aggregation properties, in words", "setting": "[5]", "value": "strong aggregation"}, {"measurement": "Aggregation Threshold", "setting": "[5]; 16p studied at ~290 μM (288 μM) due to poor solubility in water", "value": 17, "unit": "µM"}, {"measurement": "Pitch length", "setting": "[4]", "value": "44 ± 4", "unit": "nm"}, {"measurement": "Structures comments", "setting": "[4]", "value": "Very homogeneous, perpendicular breaks"}, {"measurement": "Width", "setting": "[4]", "value": "22±3", "unit": "nm"}, {"measurement": "Structure (TEM)", "setting": "[4]", "value": "structures resembling ribbons; also recorded: Rather ribbons"}]}
{"substance": "VQVYKI [22p]", "values": [{"measurement": "Classification of the peptide (aggregative / amyloid / soluble), in words", "setting": "[2]", "value": "aggregative; also recorded: soluble"}, {"measurement": "Structures comments", "setting": "[4]", "value": "Highly heterogeneous"}, {"measurement": "Structure (TEM)", "setting": "[4]", "value": "fibrillar structures; also recorded: Twisted ribbons bundles/fibers"}]}
{"substance": "QKYIVV [8p]", "values": [{"measurement": "Classification of the peptide (aggregative / amyloid / soluble), in words", "setting": "[2]", "value": "entirely soluble"}, {"measurement": "Aggregation properties, in words", "setting": "[5]", "value": "no"}]}
{"substance": "YQVIVK [17p]", "values": [{"measurement": "Amyloidogenicity by Thioflavin T fluorescence, in words", "setting": "[6]", "value": "without fluorescence"}, {"measurement": "Classification of the peptide (aggregative / amyloid / soluble), in words", "setting": "[2]", "value": "aggregative"}, {"measurement": "Structures comments", "setting": "[4]", "value": "Flat/short tangled, heterogeneous"}, {"measurement": "Width", "setting": "[4]", "value": "14 ± 2", "unit": "nm"}, {"measurement": "Structure (TEM)", "setting": "[4]", "value": "structures resembling ribbons"}]}
{"substance": "KVQIVY [10p]", "values": [{"measurement": "Classification of the peptide (aggregative / amyloid / soluble), in words", "setting": "[2]", "value": "aggregative"}, {"measurement": "Structures comments", "setting": "[4]", "value": "Heterogeneous"}, {"measurement": "Structure (TEM)", "setting": "[4]", "value": "structures resembling ribbons; also recorded: Rather flat and tight ribbons"}]}
{"substance": "IKQVYV [5p]", "values": [{"measurement": "Classification of the peptide (aggregative / amyloid / soluble), in words", "setting": "[2]", "value": "entirely soluble; also recorded: non-aggregative"}, {"measurement": "Aggregation properties, in words", "setting": "[5]", "value": "very weak"}]}
{"substance": "VQIVYK [ß1, reference compound]", "values": [{"measurement": "Diameter", "setting": "[4]", "value": "9 ± 2", "unit": "nm"}, {"measurement": "Pitch length", "setting": "[4]", "value": "105 ± 20", "unit": "nm"}, {"measurement": "Structures comments", "setting": "[4]", "value": "Rather homogeneous"}, {"measurement": "Diameter", "setting": "[4]; listed as β1", "value": "~10", "unit": "nm"}, {"measurement": "Pitch length", "setting": "[4]; listed as β1", "value": "~100", "unit": "nm"}, {"measurement": "Structure (TEM)", "setting": "[4]", "value": "fibrillar structures"}, {"measurement": "Structure (TEM)", "setting": "[4]; listed as ß1*", "value": "Double/Twisted fibers"}]}
{"substance": "YIVVQK [13p]", "values": [{"measurement": "Classification of the peptide (aggregative / amyloid / soluble), in words", "setting": "[2]", "value": "entirely soluble"}, {"measurement": "Aggregation properties, in words", "setting": "[5]", "value": "no"}]}
{"substance": "VVQKYI [6p]", "values": [{"measurement": "Classification of the peptide (aggregative / amyloid / soluble), in words", "setting": "[2]", "value": "entirely soluble; also recorded: non-aggregative"}, {"measurement": "Aggregation properties, in words", "setting": "[5]", "value": "very weak"}]}
{"substance": "VQKIYV [4p]", "values": [{"measurement": "Classification of the peptide (aggregative / amyloid / soluble), in words", "setting": "[2]", "value": "entirely soluble; also recorded: non-aggregative"}, {"measurement": "Aggregation properties, in words", "setting": "[5]", "value": "no"}]}
{"substance": "VKVYIQ [11p]", "values": [{"measurement": "Reversion of structures after dilution, in words", "setting": "[1]", "value": "almost total reversion"}, {"measurement": "Classification of the peptide (aggregative / amyloid / soluble), in words", "setting": "[2]", "value": "amyloid; also recorded: amyloidogenic character"}, {"measurement": "Slope of the Cr linear regression", "setting": "[3]", "value": 0.74}, {"measurement": "Diameter", "setting": "[4]", "value": "5 ± 1", "unit": "nm"}, {"measurement": "Structure (TEM)", "setting": "[4]", "value": "fibrillar structures"}, {"measurement": "Structure (TEM)", "setting": "[4]; listed as 11p*", "value": "Stringy filaments/fibers"}]}
{"substance": "VKYQVI [3p]", "values": [{"measurement": "Classification of the peptide (aggregative / amyloid / soluble), in words", "setting": "[2]", "value": "entirely soluble; also recorded: non-aggregative"}, {"measurement": "Aggregation properties, in words", "setting": "[5]", "value": "very weak"}]}
{"substance": "QKVYIV [19p]", "values": [{"measurement": "Classification of the peptide (aggregative / amyloid / soluble), in words", "setting": "[2]", "value": "aggregative"}, {"measurement": "Structures comments", "setting": "[4]", "value": "Few twists and bundles"}, {"measurement": "Width", "setting": "[4]", "value": "11± 3", "unit": "nm"}, {"measurement": "Structure (TEM)", "setting": "[4]", "value": "fibrillar structures; also recorded: Tangle ribbons"}]}
{"substance": "VQVIYK [12p]", "values": [{"measurement": "Reversion of structures after dilution, in words", "setting": "[1]", "value": "almost total reversion"}, {"measurement": "Classification of the peptide (aggregative / amyloid / soluble), in words", "setting": "[2]", "value": "amyloid"}, {"measurement": "Diameter, Tight", "setting": "[4]", "value": 7, "unit": "nm"}, {"measurement": "Diameter, Wide", "setting": "[4]", "value": 15, "unit": "nm"}, {"measurement": "Pitch length", "setting": "[4]", "value": "177 ± 26", "unit": "nm"}, {"measurement": "Structures comments", "setting": "[4]", "value": "Twisting of at least four filaments"}, {"measurement": "Structure (TEM)", "setting": "[4]", "value": "fibrillar structures"}, {"measurement": "Structure (TEM)", "setting": "[4]; listed as 12p*", "value": "Twisted Stringy filaments/fibers"}]}
{"substance": "VKVIYQ [7p]", "values": [{"measurement": "Amyloidogenicity by Thioflavin T fluorescence, in words", "setting": "[6]", "value": "without fluorescence"}, {"measurement": "Classification of the peptide (aggregative / amyloid / soluble), in words", "setting": "[2]", "value": "aggregative; also recorded: strong aggregation potential"}, {"measurement": "Diameter", "setting": "[4]", "value": "17 ± 4", "unit": "nm"}, {"measurement": "Pitch length", "setting": "[4]", "value": "138 ± 12", "unit": "nm"}, {"measurement": "Structures comments", "setting": "[4]", "value": "Homogeneous perpendicular breaks"}, {"measurement": "Structure (TEM)", "setting": "[4]", "value": "fibrillar structures; also recorded: Twisted fibers"}]}
{"substance": "IYVQKV [9p]", "values": [{"measurement": "Classification of the peptide (aggregative / amyloid / soluble), in words", "setting": "[2]", "value": "entirely soluble; also recorded: non-aggregative"}, {"measurement": "Structures seen by Cryo-EM", "setting": "[8]", "value": "absence of structures"}, {"measurement": "Aggregation properties, in words", "setting": "[5]", "value": "no"}, {"measurement": "Structure (TEM)", "setting": "[4]", "value": "crystal structures"}]}
